Reference: patent US9573961B2, “Inhibitors of the renal outer medullary potassium channel” (Merck Sharp & Dohme Corp., priority 2012, dated 2017)
Where two headings read alike, the source gives them in different places.

What was measured:
Kir1.1 (ROMK1) = Kir1.1 (ROMK1) (Homo sapiens (Human), UniProt P48048); experiment: Electrophysiology Assay (whole cell voltage clamp, IonWorks Quattro); type: cell-based; details: block during voltage step to 0 mV
Description: Chinese hamster ovary cells stably expressing Kir1.1 channels were maintained in T-75 flasks in cell culture media in a humidified 10% CO2 incubator at 37° C. Prior to an experiment, Kir1.1 expression was induced by overnight incubation with 1 mM sodium butyrate. […] After centrifugation, the cell pellet was resuspended in approximately 4.0 mL of bath solution and placed in the IonWorks instrument. The intracellular solution consisted of (in mM): 80 K gluconate, 40 KCl, 20 KF, 3.2 MgCl2, 3 EGTA, 5 Hepes, pH 7.4. Electrical access to the cytoplasm was achieved by perforation in 0.13 mg/mL amphotericin B for 4 min. […] Voltage protocols and current recordings were performed using the IonWorks HT software/hardware system. Currents were sampled at 1 kHz. No correction for liquid junction potentials was used. The test pulse, consisting of a 100 ms step to 0 mV from a holding potential of −70 mV, followed by a 100 ms voltage ramp from −70 mV to +70 mV, was applied before and after a 6 min compound incubation period. Test compounds were prepared by diluting DMSO stock solutions into the bath solution at 3× the final concentration and placed in the instrument in 96-well polypropylene plates. Current amplitudes were measured using the IonWorks software.

hROMK (hKir1.1) = hROMK (hKir1.1) (Homo sapiens (Human), UniProt P48048); experiment: Thallium Flux Assay (ROMK channel functional thallium flux, FLIPR-Tetra); type: cell-based; details: HEK293 cells stably expressing hROMK (hKir1.1); read-out: Thallium Flux IC50
Description: Cell Culture Conditions—HEK293 cells stably expressing hROMK (hKir1.1) were grown at 37° C. in a 10% CO2 humidified incubator in complete growth media: Dulbecco's Modified Eagle Medium supplemented with non-essential amino acids, Penicillin/Streptomycin/Glutamine, G418 and FBS. At >80% confluency, aspirate the media from the flask and rinse with 10 mL Calcium/Magnesium-free PBS. […] To dislodge the cell, gently bang the side of the flask with your hand. Triturate the cells completely and then transfer the cells to 25 mL complete media. Centrifuge at 1,500 rpm for 6 min followed by resuspension in complete growth media and determine cell concentration. […] Under ideal growth conditions and appropriate tissue culture practices, this cell line is stable for 40-45 passages.
FluxOR Kit Components (Invitrogen F10017) • FluxOR™ Reagent (Component A) • FluxOR™ Assay Buffer (Component B)—10× Concentrate • PowerLoad™ Concentrate (Component C)—100× Concentrate • Probenecid (Component D)—Lyophilized sample is kept at −20° C. Water soluble, 100× after solubilization in 1 mL water. […] Store at 4° C. • Thallium sulfate (Tl2SO4) Concentrate (Component G)—50 mM in water. Store at 4° C. • DMSO (dimethyl sulfoxide, Component H)—1 mL (100%)
Can be stored at room temperature • Stimulant Buffer (prepared at 5× final concentration in 1× FluxOR™ Chloride-Free Buffer): 7.5 mM Thallium sulfate and 0.75 mM Potassium sulfate (to give a final assay concentration of 3 mM Thallium/0.3 mM Potassium). Store at 4° C. when not in use. If kept sterile, this solution is good for months.
Assay Protocol—The ROMK channel functional thallium flux assay is performed in 384 wells, using the FLIPR-Tetra instrument. HEK-hKir1.1 cells are seeded in Poly-D-Lysine microplates and kept in a 37° C.-10% CO2 incubator overnight. On the day of the experiment, the growth media is replaced with the FluxOR™ reagent loading buffer and incubated, protected from light, at ambient temperature (23-25° C.) for 90 min. The loading buffer is replaced with assay buffer±test compound followed by 30 min incubation at ambient temperature, where the Thallium/Potassium stimulant is added to the microplate.
Step Protocol • 1. Seed HEK-hKir1.1 cells (50 μl at 20,000 cells/well) in 384-well PDL coated Microplates • 2. Allow cells to adhere overnight in humidified 37° C./10% CO2 incubator • 3. Completely remove cell growth media from microplate and replace with 25 μl loading buffer • 4. Incubate Microplate at room temperature, protected form light, for 90 min • 5. Remove loading buffer and replace with 25 μl 1× Assay Buffer±test compound. • 6. Incubate microplate at room temperature, protected from light, for 30 min • 7. […] Excitation=400 nm, Emission=460 & 580 nm. Collect data for ˜10 min.
Data Calculation—The fluorescence intensity of wells containing 3 μM of a standard control ROMK inhibitor of the present invention is used to define the ROMK-sensitive component of thallium flux. Fluorescence in the presence of test compounds is normalized to control values to provide % fluorescence change.

[1] = Chinese hamster ovary cells stably expressing Kir1.1, read-out: Electrophysiology IC50
[2] = Electrophysiology IC50, Chinese hamster ovary cells stably expressing Kir1.1

Sequence of hROMK (hKir1.1) (P48048 whole entry): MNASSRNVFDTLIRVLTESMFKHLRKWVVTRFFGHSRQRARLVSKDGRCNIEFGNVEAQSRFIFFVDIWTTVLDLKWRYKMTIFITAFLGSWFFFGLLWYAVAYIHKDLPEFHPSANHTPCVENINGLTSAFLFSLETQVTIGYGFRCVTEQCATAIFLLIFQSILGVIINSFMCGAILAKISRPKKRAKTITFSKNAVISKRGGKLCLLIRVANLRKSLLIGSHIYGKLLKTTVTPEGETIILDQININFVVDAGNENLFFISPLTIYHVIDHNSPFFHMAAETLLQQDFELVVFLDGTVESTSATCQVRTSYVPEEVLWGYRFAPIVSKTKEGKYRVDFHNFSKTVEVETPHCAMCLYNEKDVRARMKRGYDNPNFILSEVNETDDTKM
Sequence of Kir1.1 (ROMK1) (P48048 whole entry): as above

| SMILES | IC50 (Kir1.1 (ROMK1); [1]) | IC50 (hROMK (hKir1.1)) | IC50 (Kir1.1 (ROMK1); [2]) |
| --- | --- | --- | --- |
| Cc1c([C@@H]2CN3CCN(C(=O)C4CCc5cc(-n6cnnn6)ccc54)C[C@H]3CO2)ccc(F)c1C#N (mixture of isomers) [Example 2B, 3-((3R,9aS)-8-(5-(1H-tetrazol-1-yl)-2,3-dihydro-1H-indene-1-carbonyl)octahydropyrazino[2,1-c][1,4]oxazin-3-yl)-6-fluoro-2-methylbenzonitrile] | 150 nM | 290 nM | – |
| Cc1c([C@H]2CN3CCN(C(=O)Cc4ccc(-n5cnnn5)cc4)C[C@H]3CO2)csc1C#N [Example 40, 3-methyl-4-[(3S,9aS)-8-{[4-(1H-tetrazol-1-yl)phenyl]acetyl}octahydropyrazino[2,1-c][1,4]oxazin-3-yl]thiophene-2-carbonitrile] | – | 90 nM | 80 nM |
| Cc1c([C@H]2CN3CCN(C(=O)Cc4ccc(-n5cnnn5)cc4)C[C@H]3CO2)ccc2nonc12 [Example 75, (3S,9aS)-3-(4-methyl-2,1,3-benzoxadiazol-5-yl)-8-{[4-(1H-tetrazol-1-yl)phenyl]acetyl}octahydropyrazino[2,1-c][1,4]oxazine] | 120 nM | 210 nM | – |
| Cc1c([C@@H]2CN3CCN(C(=O)Cc4c(F)cc(-n5cnnn5)cc4F)C[C@@H]3CO2)ccc2c1COC2=O [Example 79, 5-[(3R,9aR)-8-{[2,6-difluoro-4-(1H-tetrazol-1-yl)phenyl]acetyl}octahydropyrazino[2,1-c][1,4]oxazin-3-yl]-4-methyl-2-benzofuran-1(3H)-one] | 190 nM | 260 nM | – |
| Cc1cc(F)c(C#N)cc1[C@@H]1CN2CCN(C(=O)Cc3ccc(-n4cnnn4)cc3)C[C@H]2CO1 [Example 38, 2-fluoro-4-methyl-5-[(3R,9aS)-8-{[4-(1H-tetrazol-1-yl)phenyl]acetyl}octahydropyrazino[2,1-c][1,4]oxazin-3-yl]benzonitrile] | 180 nM | 110 nM | – |
| Cc1c([C@@H]2CN3CCN(C(=O)Cc4cc(-n5cnnn5)ccc4F)C[C@@H]3CO2)ccc(F)c1C#N [Example 59, 6-fluoro-3-[(3R,9aR)-8-{[2-fluoro-5-(1H-tetrazol-1-yl)phenyl]acetyl}octahydropyrazino[2,1-c][1,4]oxazin-3-yl]-2-methylbenzonitrile] | 140 nM | 360 nM | – |
| Cc1c([C@@H]2CN3CCN(C(=O)Cc4ccc(-n5cnnn5)cc4)C[C@H]3CO2)csc1C#N [Example 39, 3-methyl-4-[(3R,9aS)-8-{[4-(1H-tetrazol-1-yl)phenyl]acetyl}octahydropyrazino[2,1-c][1,4]oxazin-3-yl]thiophene-2-carbonitrile] | – | 60 nM | 60 nM |
| Cc1c([C@H]2CN3CCN(C(=O)Cc4ccc(-n5cnnn5)cc4)C[C@H]3CN2)ccc(F)c1C#N [Example 101] | – | 60 nM | 50 nM |
| C[C@@H]1Cc2cc([C@@H]3CN4CCN(C(=O)Cc5c(F)cc(-n6cnnn6)cc5F)C[C@H]4CN3)ccc2C(=O)O1 [Example 105] | – | 360 nM | 180 nM |
| COc1ccc([C@@H]2CN3CCN(C(=O)Cc4ccc(-n5cnnn5)cc4)C[C@H]3CO2)c(F)c1C#N [Example 25, 2-fluoro-6-methoxy-3-[(3R,9aS)-8-{[4-(1H-tetrazol-1-yl)phenyl]acetyl}octahydropyrazino[2,1-c][1,4]oxazin-3-yl]benzonitrile] | 200 nM | 150 nM | – |
| Cc1c([C@H]2CN3CCN(C(=O)Cc4ccc(-n5cnnn5)cc4)C[C@@H]3CO2)ccc2c1COC2=O [Example 14, 4-methyl-5-[(3S,9aR)-8-{[4-(1H-tetrazol-1-yl)phenyl]acetyl}octahydropyrazino[2,1-c][1,4]oxazin-3-yl]-2-benzofuran-1(3H)-one] | – | 110 nM | 140 nM |
| COc1cc([C@H]2CN3CCN(C(=O)C4CCc5cc(-n6cnnn6)ccc54)C[C@H]3CO2)ccc1C#N (mixture of isomers) [Example 66, 2-methoxy-4-[(3S,9aS)-8-{[5-(1H-tetrazol-1-yl)-2,3-dihydro-1H-inden-1-yl]carbonyl}octahydropyrazino[2,1-c][1,4]oxazin-3-yl]benzonitrile] | 490 nM | 370 nM | – |
| Cc1c([C@@H]2CN3CCN(C(=O)Cc4ccc(-n5cnnn5)cc4)C[C@H]3CN2)ccc(F)c1C#N [Example 99, 3-((3R,9aR)-8-(2-(4-(1H-tetrazol-1-yl)phenyl)acetyl)octahydro-1H-pyrazino[1,2-a]pyrazin-3-yl)-6-fluoro-2-methylbenzonitrile] | 180 nM | 70 nM | – |
| Cc1c([C@@H]2CN3CCN(C(=O)Cc4c(F)cc(-n5cnnn5)cc4F)C[C@H]3CO2)ccc(F)c1C#N [Example 52, 3-[(3R,9aS)-8-{[2,6-difluoro-4-(1H-tetrazol-1-yl)phenyl]acetyl}octahydropyrazino[2,1-c][1,4]oxazin-3-yl]-6-fluoro-2-methylbenzonitrile] | 70 nM | 170 nM | – |
| Cc1c([C@H]2CN3CCN(C(=O)Cc4cccc(-n5cnnn5)c4)C[C@@H]3CO2)ccc(F)c1C#N [Example 57, 6-fluoro-2-methyl-3-[(3S,9aR)-8-{[3-(1H-tetrazol-1-yl)phenyl]acetyl}octahydropyrazino[2,1-c][1,4]oxazin-3-yl]benzonitrile] | 50 nM | 140 nM | – |
| O=C1OCc2c1ccc([C@@H]1CN3CCN(C(=O)Cc4ccc(-n5cnnn5)cc4)C[C@H]3CO1)c2Cl [Example 20, 4-chloro-5-[(3R,9aS)-8-{[4-(1H-tetrazol-1-yl)phenyl]acetyl}octahydropyrazino[2,1-c][1,4]oxazin-3-yl]-2-benzofuran-1(3H)-one] | – | 580 nM | 60 nM |
| Cc1c([C@@H]2CN3CCN(C(=O)Cc4c(F)cc(-n5cnnn5)cc4F)C[C@@H]3CO2)ccc(F)c1C#N [Example 53, 3-[(3R,9aR)-8-{[2,6-difluoro-4-(1H-tetrazol-1-yl)phenyl]acetyl}octahydropyrazino[2,1-c][1,4]oxazin-3-yl]-6-fluoro-2-methylbenzonitrile] | 110 nM | 180 nM | – |
| Cc1c([C@@H]2CN3CCN(C(=O)Cc4cc(F)c(-n5cnnn5)cc4F)C[C@H]3CO2)ccc(F)c1C#N [Example 55, 3-[(3R,9aS)-8-{[2,5-difluoro-4-(1H-tetrazol-1-yl)phenyl]acetyl}octahydropyrazino[2,1-c][1,4]oxazin-3-yl]-6-fluoro-2-methylbenzonitrile] | – | 130 nM | 100 nM |
| O=C(C1CCc2cc(-n3cnnn3)ccc21)N1CCN2C[C@@H](c3cccc(-n4cnnn4)c3)OC[C@@H]2C1 (single isomer, unassigned) [Example 80] | 280 nM | 130 nM | – |
| Cc1c([C@@H]2CN3CCN(C(=O)C4CCCc5cc(-n6cnnn6)ccc54)C[C@H]3CO2)ccc2c1COC2=O (single isomer, unassigned) [Example 89] | 460 nM | 490 nM | – |
